According to patent US6649654B1, “Methods for identifying and using IKK inhibitors” (The Regents of the University of California, priority 1999, dated 2003):
Entries after “also recorded” stand apart in the source; their conditions may differ.

Experiments:
[1] = tested on: carrageenin-induced pleurisy; conditions: rats, endogenous and exogenous 15dPGJ2; Gilroy et al.; cited from earlier work
[2] = target: T1, IKK (Homo sapiens, UniProt O14920+O15111); test: Endogenous IKK activity (kinase assay) in treated, stimulated HeLa cells; format: cell-based; parameters: Endogenous IKK was immunoprecipitated from TNFα-stimulated HeLa cells; endogenous in cells; host or cells: HeLa; conditions: for effect on IKK activity: HeLa cells stimulated with TNFα (PGA1: IL-1 or TNFα)
Procedure: (§1) Cells used in the experiments described herein were cultured in either RPMI 1640 (Jurkat cells) or DMEM (HeLa and COS cells), supplemented with 10% FBS and antibiotics. Cells were stimulated with either 25 ng/ml TPA, 20 ng/ml recombinant TNFα, or 10 ng/ml interleukin 1β (Sigma). PGA1, 15dPGJ2, T×B2, LTB4, AA and other PGs (Cayman) dissolved in ethanol were used as well, as known in the art (See e.g., Rossi et al., 94:746-750 [1997]). Controls received equal amounts of ethanol. Transfections were performed using Lipofectamine Plus (GIBCO) for HeLa and COS cells and DEAE-dextran (Sigma) for Jurkat cells. Xpress-tagged NIK, Xpress-tagged MEKK1, HA-tagged IKKα, and HA-tagged IKKβ were also used (See e.g., Zandi et al., Science 281:1360-1363 [1998]; and Delhase et al., Science 284:309-313 [1999]). COX2 and cPLA2 expression vectors were obtained from Dr. L. Feng (See also, Hirose et al., J. Am. Soc. Nephrol., 9:408-416 [1998]). PGD synthase was cloned from HT29 colon carcinoma cell line cDNA by PCR and subcloned into a pCDNA3 vector. Cells were lysed in buffer B (50 mM Tris-HCl, pH 7.5, 400 mM NaCl, 1 mM EDTA, 1 mM EGTA, 1% Triton, 0.5% NP-40, 10% glycerol, and supplemented with 20 mM β-glycerophosphate, 10 mM PNPP, 500 mM Na3VO4, 1 mM PMSF, 20 μg/ml aprotinin, 2.5 μg/ml leupeptin, 8.3 μg/ml bestatin, 1.7 μg/ml pepstatin, and 2 mM DTT).
(§2) Cell lysates were incubated with anti-IKKα (Pharmingen), anti-HA (12CA5; Pharmingen), anti-JNK1 (333.8; Pharmingen), or anti-p38 (New England Biolabs) for 2 hours. Then, 15 μl protein A-Sepharose (Sigma) were added and the mixture was allowed to incubate for 1 hour. After extensive washing, kinase assays were performed as known in the art (See e.g., DiDonato et al., Nature 388:548-554 [1997]). Endogenous IKK, HA-tagged IKKα, endogenous JNK1, and p38 activities were determined with GST-1κBα(1-54), GST-c-Jun(1-79), and GST-ATF2 as substrates.
(§3) In this Example, experiments to determined the effects of arachidonic acid and its metabolites on IKK activity in vivo and in vitro are described. HeLa cells were treated with 50 μM AA, PGA1, PGB2, PGD2, PGE1, PGE2, PGF1α, or thromboxane B2 (T×B2), 1 μM LTB4, or 5 μM 15dPGJ2, for 2 hours in RPMI containing 10% FCS, and stimulated with TNFα for 10 minutes. Cell lysates were then assayed for endogenous IKK activity and recovery. In this FIGURE, “control” indicates unstimulated cells, and “-” indicates treatment with diluent alone. In addition, IKK was immunoprecipitated from TNFα-stimulated HeLA cells and incubated in vitro with 100 μM AA, PGA1, PGB2, PGD2, PGE1, PGE2, PGF1α, or T×B2, 2 μM LTB4 or 10 μM 15dPGJ2, followed by kinase assay and immunoblot analysis. In this FIGURE, “control” indicates to unstimulated cells, and “-”indicates 1% ethanol.

[3] = target: p38 (Homo sapiens, UniProt Q16539); test: In vitro p38 kinase activity; format: biochemical; parameters: Endogenous IKK, HA-tagged IKKα, endogenous JNK1, and p38 activities were determined; endogenous in cells; conditions: in vitro incubation with up to 60 μM
Procedure: as §2
(§4) Endogenous IKK was immunoprecipitated from TNFα-stimulated HeLa cells and the kinase activity determined in the presence of different concentrations of PGA1 (the results of which are shown in FIG. 2B) or 15dPGJ2 (the results of which are shown in FIG. 2C).

[4] = target: T1, IKK; test: In vitro kinase assay of IKK immunoprecipitated from TNFα-stimulated HeLa cells; format: biochemical; parameters: Endogenous IKK was immunoprecipitated from TNFα-stimulated HeLa cells; endogenous in cells; host or cells: HeLa; conditions: for IC50: IKK immunoprecipitated from TNFα-stimulated HeLa cells
Procedure: as §2, §4, §3
Many protein kinase inhibitors compete with binding of ATP, but preincubation in the presence of increasing concentrations of ATP had no effect on inhibition of IKKβ by 15dPGJ2, as indicated in FIG. 6A. […] The pellets were rinsed and kinase activity was measured.

[5] = tested on: NF-κB; test: NF-κB activation by TPA in human cells expressing very low levels of PPAR-γ; format: cell-based; conditions: human cells with very low PPAR-γ, data not shown
[6] = target: T1, IKK; test: TNFα-induced IKK activity in human peripheral blood monocytes; format: cell-based
[7] = tested on: IKK; test: NIK-induced endogenous IKK activity in transfected COS cells; format: cell-based; conditions: PGA1 added 10 min or 18 h after transfection
Procedure: as §1, with “Cells were lysed in buffer B (50 mM Tris-HCl, pH 7.5, 400 mM NaCl, 1 mM EDTA, 1 mM EGTA, 1% Triton, 0.5% NP-40, 10% glycerol, and supplemented with 20 mM β-glycerophosphate, 10 mM PNPP, 500 mM Na3VO4, 1 mM PMSF, 20 μg/ml aprotinin, 2.5 μg/ml leupeptin, 8.3 μg/ml bestatin, 1.7 μg/ml pepstatin, and 2 mM DTT).” left out
(§5) Cell lysates were incubated with anti-IKKα (Pharmingen), anti-HA (12CA5; Pharmingen), anti-JNK1 (333.8; Pharmingen), or anti-p38 (New England Biolabs) for 2 hours. […] Endogenous IKK, HA-tagged IKKα, endogenous JNK1, and p38 activities were determined with GST-1κBα(1-54), GST-c-Jun(1-79), and GST-ATF2 as substrates.

[8] = tested on: IKK; test: MEKK1-induced IKK activity in COS cells; format: cell-based; conditions: data not shown
Procedure: as §1, with “Cells were lysed in buffer B (50 mM Tris-HCl, pH 7.5, 400 mM NaCl, 1 mM EDTA, 1 mM EGTA, 1% Triton, 0.5% NP-40, 10% glycerol, and supplemented with 20 mM β-glycerophosphate, 10 mM PNPP, 500 mM Na3VO4, 1 mM PMSF, 20 μg/ml aprotinin, 2.5 μg/ml leupeptin, 8.3 μg/ml bestatin, 1.7 μg/ml pepstatin, and 2 mM DTT).” left out
as §5

[9] = tested on: IκBα; test: IκBα degradation in stimulated Jurkat cells (immunoblot); format: cell-based, human; conditions: TNFα or TPA
Procedure: as §1, with “Cells were lysed in buffer B (50 mM Tris-HCl, pH 7.5, 400 mM NaCl, 1 mM EDTA, 1 mM EGTA, 1% Triton, 0.5% NP-40, 10% glycerol, and supplemented with 20 mM β-glycerophosphate, 10 mM PNPP, 500 mM Na3VO4, 1 mM PMSF, 20 μg/ml aprotinin, 2.5 μg/ml leupeptin, 8.3 μg/ml bestatin, 1.7 μg/ml pepstatin, and 2 mM DTT).” left out
In addition, recombinant IKKβ was expressed in Sf9 cells and purified as described (Zandi et al., supra). […] After 1.5 hours at 4° C., the immunoprecipitates were washed and the kinase activity determined. […]

T1 sequence (O14920 whole entry): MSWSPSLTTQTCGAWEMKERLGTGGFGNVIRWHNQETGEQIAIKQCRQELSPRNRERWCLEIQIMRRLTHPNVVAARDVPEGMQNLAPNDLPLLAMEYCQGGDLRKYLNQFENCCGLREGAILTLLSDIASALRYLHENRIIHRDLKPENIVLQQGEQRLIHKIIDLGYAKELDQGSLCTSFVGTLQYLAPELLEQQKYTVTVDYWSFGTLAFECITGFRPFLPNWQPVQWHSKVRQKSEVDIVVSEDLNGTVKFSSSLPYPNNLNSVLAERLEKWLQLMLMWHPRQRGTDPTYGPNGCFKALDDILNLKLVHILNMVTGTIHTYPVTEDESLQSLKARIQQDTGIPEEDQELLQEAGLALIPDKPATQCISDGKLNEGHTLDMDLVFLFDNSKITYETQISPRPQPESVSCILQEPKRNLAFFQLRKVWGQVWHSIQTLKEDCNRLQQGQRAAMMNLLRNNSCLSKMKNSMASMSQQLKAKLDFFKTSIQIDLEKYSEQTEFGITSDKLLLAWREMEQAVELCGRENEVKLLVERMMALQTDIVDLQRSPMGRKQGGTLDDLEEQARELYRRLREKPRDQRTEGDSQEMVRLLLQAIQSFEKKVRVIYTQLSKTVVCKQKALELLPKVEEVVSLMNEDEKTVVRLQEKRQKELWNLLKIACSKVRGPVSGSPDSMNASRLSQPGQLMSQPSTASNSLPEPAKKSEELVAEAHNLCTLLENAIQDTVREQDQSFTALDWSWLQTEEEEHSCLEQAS
T1 sequence (O15111 whole entry): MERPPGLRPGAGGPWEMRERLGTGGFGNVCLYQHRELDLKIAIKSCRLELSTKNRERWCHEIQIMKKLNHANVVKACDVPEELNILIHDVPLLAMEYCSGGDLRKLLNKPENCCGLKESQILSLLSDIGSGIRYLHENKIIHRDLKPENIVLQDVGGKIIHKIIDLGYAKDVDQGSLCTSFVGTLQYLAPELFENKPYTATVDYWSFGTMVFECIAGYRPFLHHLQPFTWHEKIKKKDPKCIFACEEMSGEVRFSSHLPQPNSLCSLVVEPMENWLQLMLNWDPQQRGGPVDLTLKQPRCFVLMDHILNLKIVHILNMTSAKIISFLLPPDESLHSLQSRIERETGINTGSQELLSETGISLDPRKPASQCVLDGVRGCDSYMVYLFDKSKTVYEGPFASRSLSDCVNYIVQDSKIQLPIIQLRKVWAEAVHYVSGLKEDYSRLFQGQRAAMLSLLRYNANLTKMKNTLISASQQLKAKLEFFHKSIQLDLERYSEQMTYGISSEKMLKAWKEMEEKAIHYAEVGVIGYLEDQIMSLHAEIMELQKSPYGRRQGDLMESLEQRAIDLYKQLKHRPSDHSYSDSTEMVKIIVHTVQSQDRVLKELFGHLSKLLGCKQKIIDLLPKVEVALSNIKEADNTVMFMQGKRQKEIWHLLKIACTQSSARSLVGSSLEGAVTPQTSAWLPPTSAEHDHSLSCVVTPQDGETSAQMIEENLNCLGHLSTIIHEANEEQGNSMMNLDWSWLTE
T1 sequence (Q9Y6K9 whole entry partner): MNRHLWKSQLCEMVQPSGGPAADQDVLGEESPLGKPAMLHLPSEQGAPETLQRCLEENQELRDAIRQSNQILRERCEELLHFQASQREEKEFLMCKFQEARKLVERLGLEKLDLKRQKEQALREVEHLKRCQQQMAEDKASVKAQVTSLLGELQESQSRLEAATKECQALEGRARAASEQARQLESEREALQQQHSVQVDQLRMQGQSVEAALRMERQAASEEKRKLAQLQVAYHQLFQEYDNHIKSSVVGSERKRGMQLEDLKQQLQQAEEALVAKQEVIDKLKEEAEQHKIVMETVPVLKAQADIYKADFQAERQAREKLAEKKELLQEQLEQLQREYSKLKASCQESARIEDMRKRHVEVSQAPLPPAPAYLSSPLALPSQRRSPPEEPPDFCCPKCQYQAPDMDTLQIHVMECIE
Sequence of p38 (Q16539 whole entry): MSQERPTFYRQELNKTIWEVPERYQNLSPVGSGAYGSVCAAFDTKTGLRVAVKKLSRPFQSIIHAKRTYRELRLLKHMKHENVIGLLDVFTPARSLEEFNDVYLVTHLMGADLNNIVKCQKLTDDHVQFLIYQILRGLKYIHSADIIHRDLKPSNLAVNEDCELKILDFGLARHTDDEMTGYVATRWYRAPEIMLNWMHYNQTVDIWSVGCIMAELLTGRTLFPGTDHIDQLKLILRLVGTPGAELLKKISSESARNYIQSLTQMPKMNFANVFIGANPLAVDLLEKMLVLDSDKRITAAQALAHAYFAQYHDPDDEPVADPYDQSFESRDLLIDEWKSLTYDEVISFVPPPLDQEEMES

| effect on IKK activity [2] | IC50 ([2]; HeLa cells, TNFα, read-out: half-maximal inhibition of IKK activity) [µM] | inhibition of p38 activity in vitro [3] | IC50 [4] [µM] | effect on TNFα-induced IKK activity [6] | SMILES | anti-inflammatory effect [1] | effect of pre-incubation with increasing ATP on inhibition (ATP competition) ([4]; 15dPGJ2 0-30 μM with or without ATP, 4° C., 30 minutes) | inhibition of NF-κB activation by TPA [5] | effect on NIK-induced activation of endogenous IKK activity [7] | effect on MEKK1-induced IKK activity [8] | effect on IκBα degradation [9] |
| --- | --- | --- | --- | --- | --- | --- | --- | --- | --- | --- | --- |
| inhibited | 5.08 | No significant inhibition | 7.08 | inhibited | CCCCC/C=C/C=C1/C(=O)C=C[C@@H]1C/C=C\CCCC(=O)O [15dPGJ2, 15-deoxy-Δ^12-14-PGJ2] | anti-inflammatory effect | had no effect; also recorded: not a competitive inhibitor of ATP binding | potent inhibitor |  |  |  |
| inhibited |  |  | 79.8 |  | CCCCC[C@H](O)/C=C/[C@H]1C=CC(=O)C1CCCCCCC(=O)O (stereo partly shown) [PGA1, prostaglandin A1] |  |  |  | inhibited; also recorded: prevents | inhibited | prevent IκBα degradation; also recorded: prevented |
